For 20 compounds, IC50 results are on record in US11311520B2, “Substituted dihydroimidazopyridinediones as MKNK1 and MKNK2 inhibitors” (Bayer Pharma Aktiengesellschaft, priority 2017, dated 2022).

This test concerns the target human full-length MKNK1 (Homo sapiens (Human), UniProt Q9BUB5, T344D). The test can be described thus: MKNK1 kinase high ATP assay (TR-FRET). It is filed as biochemical. To be noted: 2 mM ATP, 15 min preincubation with enzyme, GST-MKNK1 (T344D). The method, then: MKNK1 Kinase High ATP Assay
MKNK1-inhibitory activity at high ATP of compounds of the present invention after their preincubation with MKNK1 was quantified employing the TR-FRET-based MKNK1 high ATP assay as described in the following paragraphs.
A recombinant fusion protein of Glutathione-S-Transferase (GST, N-terminally) and human full-length MKNK1 (amino acids 1-424 and T344D of accession number BAA 19885.1), expressed in insect cells using baculovirus expression system and purified via glutathione sepharose affinity chromatography, was purchased from Carna Biosciences (product no 02-145) and used as enzyme. As substrate for the kinase reaction the biotinylated peptide biotin-Ahx-IKKRKLTRRKSLKG (SEQ ID NO: 1) (C-terminus in amide form) was used, which can be purchased e.g. from the company Biosyntan (Berlin-Buch, Germany)
For the assay 50 nL of a 100 fold concentrated solution of the test compound in DMSO was pipetted into a black low volume 384 well microtiter plate (Greiner Bio-One, Frickenhausen, Germany), 2 μL of a solution of MKNK1 in aqueous assay buffer [50 mM HEPES pH 7.5, 5 mM MgCl2, 1.0 mM dithiothreitol, 0.005% (v/v) Nonidet-P40 (Sigma)] was added and the mixture was incubated for […] at 22° C. to allow pre-binding of the test compounds to the enzyme before the start of the kinase reaction. Then the kinase reaction was started by the addition of 3 μL of a solution of adenosine-tri-phosphate (ATP, 3.3 mM=>final conc. in the 5 μL assay volume is 2 mM) and substrate (0.1 μM=>final conc. in the 5 μL assay volume is 0.06 μM) in assay buffer and the resulting mixture was incubated for a reaction time of 30 min at 22° C. The concentration of MKNK1 was adjusted depending of the activity of the enzyme lot and was chosen appropriate to have the assay in the linear range, typical concentrations were in the range of 0.003 μg/mL. The reaction was stopped by the addition of 5 μL of a solution of TR-FRET detection reagents (5 nM streptavidine-XL665 [Cisbio Bioassays, Codolet, France] and 1 nM anti-ribosomal protein S6 (pSer236)-antibody from Invitrogen [#44921G] and 1 nM LANCE EU-W1024 labeled ProteinG [Perkin-Elmer, product no. AD0071]) in an aqueous EDTA-solution (100 mM EDTA, 0.1% (w/v) bovine serum albumin in 50 mM HEPES pH 7.5).
The resulting mixture was incubated for 1 h at 22° C. to allow the formation of complex between the phosphorylated biotinylated peptide and the detection reagents. Subsequently the amount of phosphorylated substrate was evaluated by measurement of the resonance energy transfer from the Eu-chelate to the streptavidine-XL. Therefore, the fluorescence emissions at 620 nm and 665 nm after excitation at 350 nm were measured in a TR-FRET reader, e.g. a Rubystar (BMG Labtechnologies, Offenburg, Germany) or a Viewlux (Perkin-Elmer). The ratio of the emissions at 665 nm and at […] was taken as the measure for the amount of phosphorylated substrate. The data were normalised (enzyme reaction without inhibitor=0% inhibition, all other assay components but no enzyme=100% inhibition).
For orientation: Time-resolved FRET reads energy transfer from a long-lived donor to a nearby acceptor.

Structures can show the parent of a compound that is named as a salt.

Chain of human full-length MKNK1 (Q9BUB5 other isoform, or with tags, fused parts or gaps T344D): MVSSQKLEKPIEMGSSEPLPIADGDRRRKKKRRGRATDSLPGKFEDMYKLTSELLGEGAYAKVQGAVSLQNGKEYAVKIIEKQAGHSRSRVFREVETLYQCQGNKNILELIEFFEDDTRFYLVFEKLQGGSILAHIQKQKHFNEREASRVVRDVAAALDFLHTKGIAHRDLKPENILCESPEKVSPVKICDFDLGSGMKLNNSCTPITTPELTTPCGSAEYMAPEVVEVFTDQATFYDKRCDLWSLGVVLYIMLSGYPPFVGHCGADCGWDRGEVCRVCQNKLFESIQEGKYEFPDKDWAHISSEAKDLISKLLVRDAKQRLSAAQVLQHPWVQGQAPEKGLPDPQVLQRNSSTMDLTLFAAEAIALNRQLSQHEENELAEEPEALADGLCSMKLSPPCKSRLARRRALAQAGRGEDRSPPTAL

In general, IC50 refers to the concentration that gives 50% inhibition. Consider `Cc1cc(Nc2ncnc3sc(C(=O)N(C)C)cc23)c(=O)n2c1C(=O)NC21CCCCC1` [Example 33, N,N-Dimethyl-4-[(8′-methyl-1′,5′-dioxo-1′,5′-dihydro-2′H-spiro[cyclohexane-1,3′-imidazo[1,5-a]pyridin]-6′-yl)amino]thieno[2,3-d]pyrimidine-6-carboxamide hydrochloride], for which inhibition (hydrochloride) was half-maximal at 70.7 nM (IC50).
With `Cc1cc(Nc2ncnc3sc(C(=O)N4CC(N)C4)cc23)c(=O)n2c1C(=O)NC2(C)C` [Example 140, 6-({6-[(3-Aminoazetidin-1-yl)carbonyl]thieno[2,3-d]pyrimidin-4-yl}amino)-3,3,8-trimethyl-2,3-dihydroimidazo[1,5-a]pyridine-1,5-dione], 22.3 nM corresponded to half-maximal inhibition (IC50). In other words, the double-digit nanomolar range.
Still for that read-out and setting: the figure for `Cc1cc(Nc2ncnc3sc(C(=O)NCCN(C)C)cc23)c(=O)n2c1C(=O)NC2(C)C` [Example 137, N-[2-(Dimethylamino)ethyl]-4-[(3,3,8-trimethyl-1,5-dioxo-1,2,3,5-tetrahydroimidazo[1,5-a]pyridin-6-yl)amino]thieno[2,3-d]pyrimidine-6-carboxamide] is 21.1 nM.
`Cc1cc(Nc2ncnc3sc(C(=O)O)cc23)c(=O)n2c1C(=O)NC21CCC1` [Example 150, 4-[(8′-Methyl-1′,5′-dioxo-1′,5′-dihydro-2′H-spiro[cyclobutane-1,3′-imidazo[1,5-a]pyridin]-6′-yl)amino]thieno[2,3-d]pyrimidine-6-carboxylic acid] showed a concentration for half-maximal inhibition (IC50) of 18.5 nM.
The same measure, in the same setting: next, `Cc1cc(Nc2ncnc3ccc(Cl)cc23)c(=O)n2c1C(=O)NC21CCCC1` [Example 98, 6′-[(6-Chloroquinazolin-4-yl)amino]-8′-methyl-2′H-spiro[cyclopentane-1,3′-imidazo[1,5-a]pyridine]-1′,5′-dione]: 7.6 nM; `Cc1cc(Nc2ncnc3cccc(C)c23)c(=O)n2c1C(=O)N[C@]21CC[C@@](O)(C(F)(F)F)CC1` [Example 188, (cis)-4-hydroxy-8′-methyl-6′-[(5-methylquinazolin-4-yl)amino]-4-(trifluoromethyl)-2′H-spiro[cyclohexane-1,3′-imidazo[1,5-a]pyridine]-1′,5′-dione]: 47 nM; `Cc1cc(Nc2ncnc3cc(Cl)ccc23)c(=O)n2c1C(=O)NC21CCCC1` [Example 186, 6′-[(7-chloroquinazolin-4-yl)amino]-8′-methyl-2′H-spiro[cyclopentane-1,3′-imidazo[1,5-a]pyridine]-1′,5′-dione]: 5.5 nM.
Take `Cc1cc(Nc2ncnc3sc(C(=O)N(C)CCN(C)C)c(C)c23)c(=O)n2c1C(=O)NC21CCCCC1` [Example 17, N-[2-(dimethylamino)ethyl]-N,5-dimethyl-4-[(8′-methyl-1′,5′-dioxo-1′,5′-dihydro-2′H-spiro[cyclohexane-1,3′-imidazo[1,5-a]pyridin]-6′-yl)amino]thieno[2,3-d]pyrimidine-6-carboxamide]: the IC50 turned out to be 40.3 nM.
On the same count and under the same terms, the figure for `Cc1cc(Nc2ncnc3sc(C(=O)N4C[C@H]5C[C@@H]4CO5)cc23)c(=O)n2c1C(=O)NC21CCCCC1` [Example 65, 8′-Methyl-6′-({6-[(1R,4R)-2-oxa-5-azabicyclo[2.2.1]hept-5-ylcarbonyl]thieno[2,3-d]pyrimidin-4-yl}amino)-2′H-spiro[cyclohexane-1,3′-imidazo[1,5-a]pyridine]-1′,5′-dione] is 5.9 nM.
The same measure, in the same setting: the figure for `Cc1cc(Nc2ncnc3sc(C(=O)N4CC[C@@H](N(C)C)C4)cc23)c(=O)n2c1C(=O)NC21CCCCC1` [Example 29, 6′-[(6-{[(3R)-3-(Dimethylamino)pyrrolidin-1-yl]carbonyl}thieno[2,3-d]pyrimidin-4-yl)amino]-8′-methyl-2′H-spiro[cyclohexane-1,3′-imidazo[1,5-a]pyridine]-1′,5′-dione] is 2.9 nM.
The same measure, in the same setting: the figure for `Cc1cc(Nc2ncnc3c2CN(C(=O)OC(C)(C)C)C3)c(=O)n2c1C(=O)NC21CCC1` [Example 162, tert-Butyl 4-[(8′-methyl-1′,5′-dioxo-1′,5′-dihydro-2′H-spiro[cyclobutane-1,3′-imidazo[1,5-a]pyridin]-6′-yl)amino]-5,7-dihydro-6H-pyrrolo[3,4-d]pyrimidine-6-carboxylate] is 21.7 nM.
Consider `Cc1cc(Nc2ccnc3[nH]ccc23)c(=O)n2c1C(=O)NC21CCCCC1` [Example 22, 8′-Methyl-6′-(1H-pyrrolo[2,3-b]pyridin-4-ylamino)-2′H-spiro[cyclohexane-1,3′-imidazo[1,5-a]pyridine]-1′,5′-dione], for which the 50% inhibitory concentration (IC50) was 12.3 nM.
The same measure, in the same setting: the figure for `Cc1cc(Nc2ncnc3ccc(Cl)cc23)c(=O)n2c1C(=O)NC21CCS(=O)(=O)CC1` [Example 199, 6-[(6-chloroquinazolin-4-yl)amino]-8-methyl-2′,3′,5′,6′-tetrahydro-2H-spiro[imidazo[1,5-a]pyridine-3,4′-thiopyran]-1,5-dione 1′,1′-dioxide] is 56.3 nM; for `Cc1cc(Nc2ncnc3sc(C(=O)N4CCC(N(C)C)CC4)cc23)c(=O)n2c1C(=O)NC21CCC1` [Example 157, 6′-[(6-{[4-(Dimethylamino)piperidin-1-yl]carbonyl}thieno[2,3-d]pyrimidin-4-yl)amino]-8′-methyl-2′H-spiro[cyclobutane-1,3′-imidazo[1,5-a]pyridine]-1′,5′-dione] it is 7.9 nM.
On the same count and under the same terms, next, `Cc1cc(Nc2ncnc3[nH]ncc23)c(=O)n2c1C(=O)NC21CCC1` [Example 160, 8′-Methyl-6′-(1H-pyrazolo[3,4-d]pyrimidin-4-ylamino)-2′H-spiro[cyclobutane-1,3′-imidazo[1,5-a]pyridine]-1′,5′-dione]: 2.9 nM; `Cc1cc(Nc2ncnc3sc(C(=O)N4CC(C#N)C4)cc23)c(=O)n2c1C(=O)NC21CCCCC1` [Example 26, 1-({4-[(8′-Methyl-1′,5′-dioxo-1′,5′-dihydro-2′H-spiro[cyclohexane-1,3′-imidazo[1,5-a]pyridin]-6′-yl)amino]thieno[2,3-d]pyrimidin-6-yl}carbonyl)azetidine-3-carbonitrile]: 5 nM; `Cc1cc(Nc2ccnc(N)n2)c(=O)n2c1C(=O)NC21CCCCC1` [Example 21, 6′-[(2-Aminopyrimidin-4-yl)amino]-8′-methyl-2′H-spiro[cyclohexane-1,3′-imidazo[1,5-a]pyridine]-1′,5′-dione]: 339 nM.
The compound `Cc1cc(Nc2ncnc3ccc(F)cc23)c(=O)n2c1C(=O)N[C@]21CC[C@@](O)(C(F)(F)F)CC1` [Example 189, (cis)-6′-[(6-fluoroquinazolin-4-yl)amino]-4-hydroxy-8′-methyl-4-(trifluoromethyl)-2′H-spiro[cyclohexane-1,3′-imidazo[1,5-a]pyridine]-1′,5′-dione] gave a half-maximal inhibitory concentration (IC50) of 274 nM.
Regarding `Cc1cc(Nc2ncnc3sc(C(N)=O)cc23)c(=O)n2c1C(=O)NC21CCCCC1` [Example 97, 4-[(8′-Methyl-1′,5′-dioxo-1′,5′-dihydro-2′H-spiro[cyclohexane-1,3′-imidazo[1,5-a]pyridin]-6′-yl)amino]thieno[2,3-d]pyrimidine-6-carboxamide], the 50% inhibitory concentration (IC50) came out at 5.1 nM.
Same read-out and setting: next, `Cc1cc(Nc2ncnc3sc(C(=O)O)cc23)c(=O)n2c1C(=O)NC21CCCC1` [Example 58, 4-[(8′-Methyl-1′,5′-dioxo-1′,5′-dihydro-2′H-spiro[cyclopentane-1,3′-imidazo[1,5-a]pyridin]-6′-yl)amino]thieno[2,3-d]pyrimidine-6-carboxylic acid]: 18.8 nM.
